Experimental data taken from PubChem BioAssay AID1845205 (Molecular Pharmacology Branch, DTP, NCI, 2023).
pIC50: −log10 of the molar value. Values joined by “and” are separate entries in the source; they are usually repeats but may differ in a detail not shown here. Equal entries are not always repeated.

Tested on: MPNST multicellular tumor spheroids, viability % test/control
Assay: Anticancer human tumor MPNST cell line growth inhibition;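 further: spheroids exposed to agents for seven days after three days of growth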;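 on viability, T/C: luminescence signal used as surrogate for viable cell amount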
Conditions: for viability, T/C: stronger effect = lower value
Method in brief: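 Complex spheroids of malignant cells with endothelial cells and mesenchymal stem cells; agents alone or combined, from near clinical Cmax (or 10 microM if unknown) down in half-log steps, 0.25% DMSO final.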

[1] = curve of first compound, second compound 30 pM
[2] = curve of first compound, second compound 94.9 pM
[3] = curve of first compound, second compound 0.0003 µM
[4] = curve of first compound, second compound 0.000949 µM
[5] = curve of first compound, second compound 0.003 µM

`CNCc1ccc(-c2cc(-c3nc(-c4ccc(S(=O)(=O)C(C)C)cc4)cnc3N)on2)cc1` + COc1cc2c(cc1O)CCNC21CSC2c3c(OC(C)=O)c(C)c4c(c3C(COC1=O)N1C(O)C3Cc5cc(C)c(OC)c(O)c5C(C21)N3C)OCO4 was tested, and the pIC50 [1] was 6.55, the pIC50 [2] was < 5.52 and the pIC50 [3] was 7.02. For the same compound, the pIC50 [4] was > 8.02, the pIC50 [5] was > 8.02 and the viability, T/C (second compound 30 pM, first compound 0.00949 µM) was 83.5%. The viability, T/C (second compound 30 pM, first compound 0.03 µM) was 105%, the viability, T/C (second compound 30 pM, first compound 0.0949 µM) was 63.5% and the viability, T/C (second compound 30 pM, first compound 0.3 µM) was 54.8%. For the same compound, the viability, T/C (second compound 30 pM, first compound 0.949 µM) was 47.2%, the viability, T/C (second compound 30 pM, first compound 3 µM) was 45.9% and the viability, T/C (second compound 94.9 pM, first compound 0.00949 µM) was 79%. For the same compound, the viability, T/C (second compound 94.9 pM, first compound 0.03 µM) was 74%, the viability, T/C (second compound 94.9 pM, first compound 0.0949 µM) was 70.4% and the viability, T/C (second compound 94.9 pM, first compound 0.3 µM) was 55.6%. The viability, T/C (second compound 94.9 pM, first compound 0.949 µM) was 49.7%, the viability, T/C (second compound 94.9 pM, first compound 3 µM) was 53.6% and the viability, T/C (second compound 0.0003 µM, first compound 0.00949 µM) was 68.1%. It also gave a viability, T/C (second compound 0.0003 µM, first compound 0.03 µM) of 70.8%, a viability, T/C (second compound 0.0003 µM, first compound 0.0949 µM) of 50.1% and a viability, T/C (second compound 0.0003 µM, first compound 0.3 µM) of 42.4%. The viability, T/C (second compound 0.0003 µM, first compound 0.949 µM) was 46.3%, the viability, T/C (second compound 0.0003 µM, first compound 3 µM) was 46.8% and the viability, T/C (second compound 0.000949 µM, first compound 0.00949 µM) was 39%. For the same compound, the viability, T/C (second compound 0.000949 µM, first compound 0.03 µM) was 39.5%, the viability, T/C (second compound 0.000949 µM, first compound 0.0949 µM) was 38.5% and the viability, T/C (second compound 0.000949 µM, first compound 0.3 µM) was 36.2%. For the same compound, the viability, T/C (second compound 0.000949 µM, first compound 0.949 µM) was 46%, the viability, T/C (second compound 0.000949 µM, first compound 3 µM) was 48.6% and the viability, T/C (second compound 0.003 µM, first compound 0.00949 µM) was 6.71%. For the same compound, the viability, T/C (second compound 0.003 µM, first compound 0.03 µM) was 17.8%, the viability, T/C (second compound 0.003 µM, first compound 0.0949 µM) was 18.7% and the viability, T/C (second compound 0.003 µM, first compound 0.3 µM) was 8.25%. It also gave a viability, T/C (second compound 0.003 µM, first compound 0.949 µM) of 12.3% and a viability, T/C (second compound 0.003 µM, first compound 3 µM) of 8.15%.

With `CC(C)n1c(=O)n(C)c2cnc3cc(F)c(-c4ccc(OCCCN5CCCCC5)nc4)cc3c21` the viability, T/C (compound 0.0316 µM) was 116% and 75.2% and 95.3%, the viability, T/C (compound 0.1 µM) was 92% and 92.2% and 75.8% and the viability, T/C (compound 0.316 µM) was 105% and 84.5% and 144%. The viability, T/C (compound 1 µM) was 93.2% and 88.2% and 84.2%, the viability, T/C (compound 3.16 µM) was 92.5% and 85.4% and 72.3% and the viability, T/C (compound 10 µM) was 63.2% and 56.1% and 54.5%. The pIC50 (curve of compound) was < 5.00.

For `COc1cc2c(cc1O)CCNC21CSC2c3c(OC(C)=O)c(C)c4c(c3C(COC1=O)N1C(O)C3Cc5cc(C)c(OC)c(O)c5C(C21)N3C)OCO4` (stereo not drawn), the viability, T/C (compound 0.003 µM) was 12.3% [middle of 10 runs].

In the case of `COc1cc(C)[nH]c(=O)c1CN1CCc2c(Cl)cc(C(OC)C3COC3)c(Cl)c2C1=O` (stereo not drawn) + COc1cc2c(cc1O)CCNC21CSC2c3c(OC(C)=O)c(C)c4c(c3C(COC1=O)N1C(O)C3Cc5cc(C)c(OC)c(O)c5C(C21)N3C)OCO4, the pIC50 [1] was < 5.00, the pIC50 [2] was < 5.00 and the pIC50 [3] was < 5.00. The pIC50 [4] was > 7.50, the pIC50 [5] was > 7.50 and the viability, T/C (second compound 30 pM, first compound 0.0316 µM) was 73.7%. The viability, T/C (second compound 30 pM, first compound 0.1 µM) was 77.4%, the viability, T/C (second compound 30 pM, first compound 0.316 µM) was 74.5% and the viability, T/C (second compound 30 pM, first compound 1 µM) was 84.8%. The viability, T/C (second compound 30 pM, first compound 3.16 µM) was 81%, the viability, T/C (second compound 30 pM, first compound 10 µM) was 90.3% and the viability, T/C (second compound 94.9 pM, first compound 0.0316 µM) was 94.7%. For the same compound, the viability, T/C (second compound 94.9 pM, first compound 0.1 µM) was 78.4%, the viability, T/C (second compound 94.9 pM, first compound 0.316 µM) was 86.4% and the viability, T/C (second compound 94.9 pM, first compound 1 µM) was 77.5%. It also gave a viability, T/C (second compound 94.9 pM, first compound 3.16 µM) of 83.2%, a viability, T/C (second compound 94.9 pM, first compound 10 µM) of 69.9% and a viability, T/C (second compound 0.0003 µM, first compound 0.0316 µM) of 79%. The viability, T/C (second compound 0.0003 µM, first compound 0.1 µM) was 68.8%, the viability, T/C (second compound 0.0003 µM, first compound 0.316 µM) was 91.7% and the viability, T/C (second compound 0.0003 µM, first compound 1 µM) was 82.5%. For the same compound, the viability, T/C (second compound 0.0003 µM, first compound 3.16 µM) was 69.8%, the viability, T/C (second compound 0.0003 µM, first compound 10 µM) was 60.6% and the viability, T/C (second compound 0.000949 µM, first compound 0.0316 µM) was 47.6%. For the same compound, the viability, T/C (second compound 0.000949 µM, first compound 0.1 µM) was 46%, the viability, T/C (second compound 0.000949 µM, first compound 0.316 µM) was 45.3% and the viability, T/C (second compound 0.000949 µM, first compound 1 µM) was 42.8%. For the same compound, the viability, T/C (second compound 0.000949 µM, first compound 3.16 µM) was 42.6%, the viability, T/C (second compound 0.000949 µM, first compound 10 µM) was 45.4% and the viability, T/C (second compound 0.003 µM, first compound 0.0316 µM) was 9.08%. The viability, T/C (second compound 0.003 µM, first compound 0.1 µM) was 11.7%, the viability, T/C (second compound 0.003 µM, first compound 0.316 µM) was 12.8% and the viability, T/C (second compound 0.003 µM, first compound 1 µM) was 5.61%. For the same compound, the viability, T/C (second compound 0.003 µM, first compound 3.16 µM) was 7.75% and the viability, T/C (second compound 0.003 µM, first compound 10 µM) was 6.1%.
